Read-outs that look alike come from different tables or passages of the source.
Tests used:
[1] = system: EBV; conditions: normalized mean of EBV replication readout
[2] = system: influenza A H1N1 virus; conditions: 48 hr post-treatment, A549
[3] = system: HCV replicon; assay type: cell-based; conditions: normalized mean of HCV replicon readout
[4] = system: HIV1 strain NL4-3; assay type: cell-based; conditions: normalized mean of HIV1 replication readout
[5] = system: F. novicida (strain U112); assay type: cell-based

Substance	EBV Norm MEAN [1]	Neuraminidase activity normalized to vehicle ([2]; 200 µM peptide)	Neuraminidase activity normalized to vehicle ([2]; 0,823 µM peptide)	Neuraminidase activity normalized to vehicle ([2]; 22,2 µM peptide)	Neuraminidase activity normalized to vehicle ([2]; 2,4691 µM peptide)	Neuraminidase activity normalized to vehicle ([2]; 7,4074 µM peptide)	Neuraminidase activity normalized to vehicle ([2]; 66,6667 µM peptide)	HCV Norm MEAN [3]	HIV1 Norm MEAN [4]	Francisella novicida Norm AUC [5]	EBV Norm MEAN ([1]; peptide screen)	HCV Norm MEAN ([3]; peptide screen)	HIV1 Norm MEAN ([4]; peptide screen)
CPEP86: peptide of the viral peptide library; sequence page not shown (SGFGPLITHG)	1.554	0,9563	0,7964	1,0588	1,0728	0,943	1,0345	0.5296	0.7849	0.8325	–	–	–
HFEPPTLHELYDLDVTAP [CPEP115]	–	1,0337	1,141	1,1784	1,0495	1,1676	1,1762	–	–	1.086	0.5144	0.5064	1.21
CPEP52: peptide of the viral peptide library; sequence page not shown (CFITKALGISYG)	2.225	0,1673	0,9576	1,0146	1,1215	0,9392	0,5319	0.3655	5.563	2.021	–	–	–
TGGER [CPEP30]	0.8583	0,9647	0,957	0,923	0,8714	0,8974	0,9486	0.2042	1.255	0.8411	–	–	–
RHFPRIW [CPEP146]	1.3564	0,7481	0,8163	0,8498	0,7842	0,7775	0,9221	0.2243	0.9815	1.892	–	–	–
GRPPLPPKQK [CPEP41]	0.7591	0,8561	1,0727	0,912	0,9209	0,9892	0,8347	0.9259	0.6258	0.9976	–	–	–
IVISDSEEE [CPEP121]	1.138	1,0697	1,0507	1,0096	1,0097	0,9639	1,0552	0.7416	0.9208	1.126	–	–	–
PVHAGPIAPGQMREP [CPEP81]	–	0,9395	0,9268	1,0319	1,0385	1,0221	1,026	–	–	1.038	0.3978	0.6759	0.8771
PTAPP [CPEP49]	0.9513	0,7922	0,6686	0,8389	0,6943	0,7716	0,9061	0.1885	1.171	1.057	–	–	–
IHTHARFLIT [CPEP139]	1.5606	0,8832	1,1262	0,9135	1,0704	1,0144	0,8125	0.5677	2.216	1.233	–	–	–
YASIL [CPEP21]	1.459	0,9829	0,8221	0,8963	0,8753	0,7869	1,0057	0.1905	2.264	0.5259	–	–	–
ELLSGLQEWL [CPEP85]	1.35	0,9118	0,9858	0,8356	0,9371	0,8683	0,8029	0.7957	0.5625	1.212	–	–	–
CPEP89: peptide of the viral peptide library; sequence page not shown (YDVLKAACKSVIKT)	–	0,097	0,8515	0,6685	0,8767	0,7891	0,2057	–	–	0.9882	0.6285	1.184	4.725
DILDLWIYHTQGYFPDWQ [CPEP114]	–	0,4016	1,1783	1,017	1,0928	1,195	0,5539	–	–	1.151	1.296	0.2469	4.359
YFADLLI [CPEP50]	1.15	0,2471	0,883	0,8095	0,771	0,9007	0,7183	0.09464	1.681	0.9176	–	–	–
LTEDRWNKPQKTKGH [CPEP141]	–	0,9005	0,8505	0,9378	0,92	0,9289	0,9241	–	–	1.234	0.7716	0.7797	0.4657
EVLADNLPPP [CPEP90]	1.561	0,7518	0,9901	0,7822	0,9469	0,8328	0,7316	1.163	0.8397	1.209	–	–	–

— publication PMC10835127, “Viruses traverse the human proteome through peptide interfaces that can be biomimetically leveraged for drug discovery” (Proceedings of the National Academy of Sciences of the …, 2024)
